Test results from US20260262643A1, “HERBICIDAL BENZOXAZINES” (FMC CORPORATION, priority 2022, published 2026).

What was measured:
blackgrass [1] = test: Test A preemergence; format: in vivo, Alopecurus myosuroides
In short: (§1)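 Seeds in loam–sand blend received a directed preemergence soil spray of compound in non-phytotoxic solvent with surfactant; postemergence plants (2–10 cm, one- to two-leaf stage) were sprayed with the same formulation. After 10 days in greenhouse, injury was rated visually versus untreated controls, 0 (no effect) to 100 (complete control).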

corn [2] = test: Test A preemergence; format: in vivo, Zea mays
In short: as §1

foxtail, giant [3] = test: Test A preemergence; format: in vivo, Setaria faberi
In short: as §1

goosegrass [4] = test: Test A preemergence; format: in vivo, Eleusine indica
In short: as §1

kochia [5] = test: Test A preemergence; format: in vivo, Bassia scoparia
In short: as §1

oat, wild [6] = test: Test A preemergence; format: in vivo, Avena fatua
In short: as §1

pigweed, palmer [7] = test: Test A preemergence; format: in vivo, Amaranthus palmeri
In short: as §1

ragweed [8] = test: Test A preemergence; format: in vivo, Ambrosia artemisiifolia
In short: as §1

ryegrass, Italian [9] = test: Test A preemergence; format: in vivo, Lolium multiflorum
In short: as §1

soybean [10] = test: Test A preemergence; format: in vivo, Glycine max
In short: as §1

wheat [11] = test: Test A preemergence; format: in vivo, Triticum aestivum
In short: as §1

blackgrass [12] = test: Test A postemergence; format: in vivo, Alopecurus myosuroides
In short: as §1

corn [13] = test: Test A postemergence; format: in vivo, Zea mays
In short: as §1

foxtail, giant [14] = test: Test A postemergence; format: in vivo, Setaria faberi
In short: as §1

goosegrass [15] = test: Test A postemergence; format: in vivo, Eleusine indica
In short: as §1

kochia [16] = test: Test A postemergence; format: in vivo, Bassia scoparia
In short: as §1

oat, wild [17] = test: Test A postemergence; format: in vivo, Avena fatua
In short: as §1

pigweed, palmer [18] = test: Test A postemergence; format: in vivo, Amaranthus palmeri
In short: as §1

ragweed [19] = test: Test A postemergence; format: in vivo, Ambrosia artemisiifolia
In short: as §1

ryegrass, Italian [20] = test: Test A postemergence; format: in vivo, Lolium multiflorum
In short: as §1

soybean [21] = test: Test A postemergence; format: in vivo, Glycine max
In short: as §1

wheat [22] = test: Test A postemergence; format: in vivo, Triticum aestivum
In short: as §1

galium = test: Test A postemergence; format: in vivo, Galium aparine
In short: as §1

horseweed = test: Test A postemergence; format: in vivo, Erigeron canadensis
In short: as §1

barnyardgrass = test: Test B flooded paddy test; format: in vivo, Echinochloa crus-galli; conditions: 250 g ai/ha, Flood, 13 days, 0 to 100 scale (0 no effect, 100 complete control)
In short: (§2)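 Compound is introduced into paddy water covering soil by 3 cm, treating plants that have reached two leaves. Pots are kept flooded at that depth under greenhouse conditions. Assessment at 13 days gives a 0–100 visual control score.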

ducksalad = test: Test B flooded paddy test; format: in vivo, Heteranthera limosa; conditions: 250 g ai/ha, Flood, 13 days, 0 to 100 scale (0 no effect, 100 complete control)
In short: as §2

rice = test: Test B flooded paddy test; format: in vivo, Oryza sativa; conditions: 250 g ai/ha, Flood, 13 days, 0 to 100 scale (0 no effect, 100 complete control)
In short: as §2

sedge, umbrella = test: Test B flooded paddy test; format: in vivo, Cyperus difformis; conditions: 250 g ai/ha, Flood, 13 days, 0 to 100 scale (0 no effect, 100 complete control)
In short: as §2

[23] = 125 g ai/ha, visual injury after 10 days, 0 to 100 scale, 0 is no effect, 100 is complete control
[24] = 500 g ai/ha, 0 to 100 scale (0 no effect, 100 complete control), 10 days
[25] = 125 g ai/ha, postemergence, 10 days, visual injury, 0 to 100 scale (0 no effect, 100 complete control)
[26] = 500 g ai/ha, Postemergence, 0 to 100 scale
[27] = 125 g ai/ha, postemergence, 10 days, 0 to 100 scale, 0 no effect, 100 complete control
[28] = 500 g ai/ha, postemergence, 10 days, visual injury, 0 to 100 scale (0 no effect, 100 complete control)

Structure (SMILES): CC1CN(C(=O)c2cc(-n3cncn3)ccc2F)c2cccc(Cl)c2O1 (stereo not drawn) [Compound 39]
- Plant response rating, Blackgrass (blackgrass [1]; [23]): 0
- Plant response rating, Blackgrass (blackgrass [1]; [24]): 60
- Plant response rating, Corn (corn [2]; [23]): 0
- Plant response rating, Corn (corn [2]; [24]): 30
- Plant response rating, Foxtail, Giant (foxtail, giant [3]; [23]): 90
- Plant response rating, Foxtail, Giant (foxtail, giant [3]; [24]): 100
- Plant response rating, Goosegrass (goosegrass [4]; [23]): 90
- Plant response rating, Goosegrass (goosegrass [4]; [24]): 100
- Plant response rating, Kochia (kochia [5]; [23]): 0
- Plant response rating, Kochia (kochia [5]; [24]): 50
- Plant response rating, Oat, Wild (oat, wild [6]; [23]): 0
- Plant response rating, Oat, Wild (oat, wild [6]; [24]): 70
- Plant response rating, Pigweed, Palmer (pigweed, palmer [7]; [23]): 50
- Plant response rating, Pigweed, Palmer (pigweed, palmer [7]; [24]): 90
- Plant response rating, Ragweed (ragweed [8]; [23]): 10
- Plant response rating, Ragweed (ragweed [8]; [24]): 20
- Plant response rating, Ryegrass, Italian (ryegrass, Italian [9]; [23]): 40
- Plant response rating, Ryegrass, Italian (ryegrass, Italian [9]; [24]): 100
- Plant response rating, Soybean (soybean [10]; [23]): 30
- Plant response rating, Soybean (soybean [10]; [24]): 70
- Plant response rating, Wheat (wheat [11]; [23]): 0
- Plant response rating, Wheat (wheat [11]; [24]): 30
- Plant response rating, Blackgrass (blackgrass [12]; [25]): 60
- Plant response rating, Blackgrass (blackgrass [12]; [26]): 60
- Plant response rating, Corn (corn [13]; [25]): 0
- Plant response rating, Corn (corn [13]; [26]): 70
- Plant response rating, Foxtail, Giant (foxtail, giant [14]; [25]): 10
- Plant response rating, Foxtail, Giant (foxtail, giant [14]; [26]): 90
- Plant response rating, Goosegrass (goosegrass [15]; [25]): 30
- Plant response rating, Goosegrass (goosegrass [15]; [26]): 60
- Plant response rating, Kochia (kochia [16]; [25]): 30
- Plant response rating, Kochia (kochia [16]; [26]): 60
- Plant response rating, Oat, Wild (oat, wild [17]; [25]): 40
- Plant response rating, Oat, Wild (oat, wild [17]; [26]): 90
- Plant response rating, Pigweed, Palmer (pigweed, palmer [18]; [25]): 20
- Plant response rating, Pigweed, Palmer (pigweed, palmer [18]; [26]): 40
- Plant response rating, Ragweed (ragweed [19]; [25]): 0
- Plant response rating, Ragweed (ragweed [19]; [26]): 60
- Plant response rating, Ryegrass, Italian (ryegrass, Italian [20]; [25]): 50
- Plant response rating, Ryegrass, Italian (ryegrass, Italian [20]; [26]): 100
- Plant response rating, Soybean (soybean [21]; [25]): 100
- Plant response rating, Soybean (soybean [21]; [26]): 100
- Plant response rating, Wheat (wheat [22]; [25]): 10
- Plant response rating, Wheat (wheat [22]; [26]): 50
- Plant response rating, Galium (galium; [25]): 90
- Plant response rating, Galium (galium; [26]): 100
- Plant response rating, Horseweed (horseweed; [25]): 0
- Plant response rating, Horseweed (horseweed; [26]): 20
- Plant response rating, Barnyardgrass (barnyardgrass): 0
- Plant response rating, Ducksalad (ducksalad): 0
- Plant response rating, Rice (rice): 0
- Plant response rating, Sedge, Umbrella (sedge, umbrella): 0

Structure (SMILES): CCc1ncn(-c2cccc(C(=O)N3C[C@H](C)Oc4c(Cl)cccc43)c2)n1 [Compound 91]
- Plant response rating, Blackgrass (blackgrass [1]; [23]): 80
- Plant response rating, Blackgrass (blackgrass [1]; [24]): 90
- Plant response rating, Corn (corn [2]; [23]): 30
- Plant response rating, Corn (corn [2]; [24]): 60
- Plant response rating, Foxtail, Giant (foxtail, giant [3]; [23]): 90
- Plant response rating, Foxtail, Giant (foxtail, giant [3]; [24]): 100
- Plant response rating, Goosegrass (goosegrass [4]; [23]): 100
- Plant response rating, Goosegrass (goosegrass [4]; [24]): 100
- Plant response rating, Kochia (kochia [5]; [23]): 90
- Plant response rating, Kochia (kochia [5]; [24]): 100
- Plant response rating, Oat, Wild (oat, wild [6]; [23]): 10
- Plant response rating, Oat, Wild (oat, wild [6]; [24]): 90
- Plant response rating, Pigweed, Palmer (pigweed, palmer [7]; [23]): 90
- Plant response rating, Pigweed, Palmer (pigweed, palmer [7]; [24]): 100
- Plant response rating, Ragweed (ragweed [8]; [23]): 0
- Plant response rating, Ragweed (ragweed [8]; [24]): 30
- Plant response rating, Ryegrass, Italian (ryegrass, Italian [9]; [23]): 90
- Plant response rating, Ryegrass, Italian (ryegrass, Italian [9]; [24]): 100
- Plant response rating, Soybean (soybean [10]; [23]): 20
- Plant response rating, Soybean (soybean [10]; [24]): 70
- Plant response rating, Wheat (wheat [11]; [23]): 0
- Plant response rating, Wheat (wheat [11]; [24]): 20
- Blackgrass plant response rating (blackgrass [12]; [27]): 90
- Plant response rating, Blackgrass (blackgrass [12]; [28]): 100
- Corn plant response rating (corn [13]; [27]): 60
- Plant response rating, Corn (corn [13]; [28]): 80
- Foxtail, Giant plant response rating (foxtail, giant [14]; [27]): 80
- Plant response rating, Foxtail, Giant (foxtail, giant [14]; [28]): 90
- Goosegrass plant response rating (goosegrass [15]; [27]): 80
- Plant response rating, Goosegrass (goosegrass [15]; [28]): 90
- Kochia plant response rating (kochia [16]; [27]): 80
- Plant response rating, Kochia (kochia [16]; [28]): 100
- Oat, Wild plant response rating (oat, wild [17]; [27]): 50
- Plant response rating, Oat, Wild (oat, wild [17]; [28]): 90
- Pigweed, Palmer plant response rating (pigweed, palmer [18]; [27]): 70
- Plant response rating, Pigweed, Palmer (pigweed, palmer [18]; [28]): 90
- Ragweed plant response rating (ragweed [19]; [27]): 30
- Plant response rating, Ragweed (ragweed [19]; [28]): 70
- Ryegrass, Italian plant response rating (ryegrass, Italian [20]; [27]): 80
- Plant response rating, Ryegrass, Italian (ryegrass, Italian [20]; [28]): 100
- Soybean plant response rating (soybean [21]; [27]): 100
- Plant response rating, Soybean (soybean [21]; [28]): 100
- Wheat plant response rating (wheat [22]; [27]): 30
- Plant response rating, Wheat (wheat [22]; [28]): 80
- Galium plant response rating (galium; [27]): 100
- Plant response rating, Galium (galium; [28]): 100
- Horseweed plant response rating (horseweed; [27]): 0
- Plant response rating, Horseweed (horseweed; [28]): 20
- Plant response rating, Barnyardgrass (barnyardgrass): 25
- Plant response rating, Ducksalad (ducksalad): 90
- Plant response rating, Rice (rice): 0
- Plant response rating, Sedge, Umbrella (sedge, umbrella): 35

Structure (SMILES): CCc1ncn(-c2cccc(C(=O)N3C[C@H](C)Oc4c(C)cccc43)c2)n1 [Compound 71]
- Plant response rating, Blackgrass (blackgrass [1]; [23]): 80
- Plant response rating, Blackgrass (blackgrass [1]; [24]): 90
- Plant response rating, Corn (corn [2]; [23]): 40
- Plant response rating, Corn (corn [2]; [24]): 60
- Plant response rating, Foxtail, Giant (foxtail, giant [3]; [23]): 100
- Plant response rating, Foxtail, Giant (foxtail, giant [3]; [24]): 100
- Plant response rating, Goosegrass (goosegrass [4]; [23]): 100
- Plant response rating, Goosegrass (goosegrass [4]; [24]): 100
- Plant response rating, Kochia (kochia [5]; [23]): 80
- Plant response rating, Kochia (kochia [5]; [24]): 100
- Plant response rating, Oat, Wild (oat, wild [6]; [23]): 90
- Plant response rating, Oat, Wild (oat, wild [6]; [24]): 90
- Plant response rating, Pigweed, Palmer (pigweed, palmer [7]; [23]): 100
- Plant response rating, Pigweed, Palmer (pigweed, palmer [7]; [24]): 100
- Plant response rating, Ragweed (ragweed [8]; [23]): 0
- Plant response rating, Ragweed (ragweed [8]; [24]): 90
- Plant response rating, Ryegrass, Italian (ryegrass, Italian [9]; [23]): 100
- Plant response rating, Ryegrass, Italian (ryegrass, Italian [9]; [24]): 100
- Plant response rating, Soybean (soybean [10]; [23]): 50
- Plant response rating, Soybean (soybean [10]; [24]): 90
- Plant response rating, Wheat (wheat [11]; [23]): 30
- Plant response rating, Wheat (wheat [11]; [24]): 90
- Plant response rating, Blackgrass (blackgrass [12]; [25]): 80
- Plant response rating, Blackgrass (blackgrass [12]; [26]): 90
- Plant response rating, Corn (corn [13]; [25]): 60
- Plant response rating, Corn (corn [13]; [28]): 90
- Plant response rating, Foxtail, Giant (foxtail, giant [14]; [25]): 90
- Plant response rating, Foxtail, Giant (foxtail, giant [14]; [28]): 90
- Plant response rating, Goosegrass (goosegrass [15]; [25]): 10
- Plant response rating, Goosegrass (goosegrass [15]; [28]): 50
- Plant response rating, Kochia (kochia [16]; [25]): 60
- Plant response rating, Kochia (kochia [16]; [28]): 90
- Plant response rating, Oat, Wild (oat, wild [17]; [28]): 80
- Plant response rating, Pigweed, Palmer (pigweed, palmer [18]; [28]): 70
- Plant response rating, Ragweed (ragweed [19]; [28]): 80
- Plant response rating, Ryegrass, Italian (ryegrass, Italian [20]; [28]): 100
- Plant response rating, Soybean (soybean [21]; [28]): 100
- Plant response rating, Wheat (wheat [22]; [28]): 80
- Plant response rating, Galium (galium; [25]): 100
- Plant response rating, Galium (galium; [28]): 100
- Plant response rating, Horseweed (horseweed; [25]): 30
- Plant response rating, Horseweed (horseweed; [28]): 80
- Plant response rating, Barnyardgrass (barnyardgrass): 0
- Plant response rating, Ducksalad (ducksalad): 65
- Plant response rating, Rice (rice): 0
- Plant response rating, Sedge, Umbrella (sedge, umbrella): 95
